# Residue numbers refer to the chain shown, from its start. In names and notes the source's numbering stands.
# T1: HPPD enzyme “SEQ ID No. 32” (Arabidopsis thaliana, UniProt P93836)
# T1 construct: made in house; host or cells: E. coli BL21 (DE3)
# T1 sequence (P93836 with tags, fused parts or gaps): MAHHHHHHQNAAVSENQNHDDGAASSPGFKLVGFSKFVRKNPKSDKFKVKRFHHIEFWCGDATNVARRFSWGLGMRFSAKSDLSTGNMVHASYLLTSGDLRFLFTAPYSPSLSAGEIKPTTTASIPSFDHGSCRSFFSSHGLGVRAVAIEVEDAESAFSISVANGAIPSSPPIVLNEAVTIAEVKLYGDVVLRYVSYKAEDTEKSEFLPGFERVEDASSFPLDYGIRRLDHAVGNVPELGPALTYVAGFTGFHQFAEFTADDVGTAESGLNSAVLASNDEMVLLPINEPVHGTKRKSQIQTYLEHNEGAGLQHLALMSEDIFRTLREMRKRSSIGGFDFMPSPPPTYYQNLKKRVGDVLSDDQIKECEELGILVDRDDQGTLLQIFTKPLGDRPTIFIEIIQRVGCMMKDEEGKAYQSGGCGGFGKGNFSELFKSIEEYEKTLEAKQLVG
# T2: Arabidopsis thaliana wild type HPPD “SEQ ID No. 32” (Arabidopsis thaliana, UniProt P93836)
# T2 construct: made in house; host or cells: E. coli BL21 (DE3)
# T2 sequence (P93836 with tags, fused parts or gaps): T1 sequence (P93836 with tags, fused parts or gaps)
# B1: S267A: point mutant S267A of A. thaliana HPPD with N-terminal alanine and 6 histidines (protein)
# chain: T1 sequence (P93836 with tags, fused parts or gaps) with S272A
# modifications: N-terminal alanine and His6 tag; encoded by SEQ ID No. 33; SITE 2 MISC_FEATURE - Ala; MISC_FEATURE - His Tag made of 6 His
# notes: point mutant S267A of A. thaliana HPPD with N-terminal alanine and 6 histidines
# B2: N282A: point mutant N282A of A. thaliana HPPD with N-terminal alanine and 6 histidines (protein)
# chain: T1 sequence (P93836 with tags, fused parts or gaps) with N287A
# modifications: N-terminal alanine and His6 tag; encoded by SEQ ID No. 35; SITE 2 MISC_FEATURE - Ala; MISC_FEATURE - His Tag made of 6 His
# notes: point mutant N282A of A. thaliana HPPD with N-terminal alanine and 6 histidines
# B3: wild type HPPD: Arabidopsis thaliana wild type HPPD polypeptide with N-terminal alanine and 6 histidine amino acids (protein)
# chain: T1 sequence (P93836 with tags, fused parts or gaps)
# modifications: misc_feature 1..1353 Nucleic acid sequence encoding Arabidopsis HPPD plus containingat the 5' end a nucleic acid encoding an Ala and 6 His aminoacids; misc_feature 4..6 sequence coding for an Ala; misc_feature 7..24 sequence coding for an His Tag containing 6 His
# Tests used:
# [1] = molecular target: T3, Arabidopsis HPPD single point mutant SEQ ID No. 48 (Arabidopsis thaliana, UniProt P93836, K421Q); assay: biochemical; conditions: for pI50: K421Q mutant (SEQ ID No. 48), 2 mM HPP, 3 minutes incubation
# T3 construct: made in house; host or cells: E. coli BL21 (DE3)
# T3 sequence (P93836 other isoform, or with tags, fused parts or gaps K421Q): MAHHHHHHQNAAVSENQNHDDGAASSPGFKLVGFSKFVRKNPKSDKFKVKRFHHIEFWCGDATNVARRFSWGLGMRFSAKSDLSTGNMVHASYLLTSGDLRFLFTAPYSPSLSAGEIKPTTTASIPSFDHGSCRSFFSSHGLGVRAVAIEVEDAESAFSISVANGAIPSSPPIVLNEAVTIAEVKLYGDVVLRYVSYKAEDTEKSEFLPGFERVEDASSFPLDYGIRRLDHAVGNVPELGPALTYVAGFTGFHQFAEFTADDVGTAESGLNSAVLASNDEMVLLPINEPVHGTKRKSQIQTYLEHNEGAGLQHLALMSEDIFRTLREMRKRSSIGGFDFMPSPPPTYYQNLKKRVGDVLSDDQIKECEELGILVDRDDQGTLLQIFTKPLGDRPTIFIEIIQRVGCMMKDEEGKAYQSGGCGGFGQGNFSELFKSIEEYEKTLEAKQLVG
# From the text: (§1) In this content, pI50-value means the log value of the concentration of inhibitor necessary to inhibit 50% of the enzyme activity in molar concentration.
# [2] = molecular target: T1, HPPD enzyme “SEQ ID No. 32”; assay: HPLC assay of HPPD in vitro kinetic properties (Km, Vmax, kcat; Ki, Kon, Koff); type: biochemical; conditions: for kinetic parameter / sensitivity of Arabidopsis thaliana HPPD in presence of inhibitor: 2 mM HPP
# Procedure: Km, Vmax, and kcat values for different HPPD enzyme preparations and Ki, K1=Kon, and K−1=Koff for different HPPD inhibitors were determined using a HPLC assay for measurements of HPPD activity. […] All assays were started by the addition of HPPD enzyme to the assay mixture and stopped at a series of times between 0 and 240 s by addition of 200 μl of the reaction mixture to reaction assay tubes containing 20 μl 10% perchloric acid. Precipitated protein was pelleted by a 5 minute centrifugation at 10,000 g.
# For Km and Vmax value determinations the initial rates of the HPPD reaction at different substrate concentrations were determined from plots of HGA formed versus time and fitted to the Michaelis-Menten equation for unireactant enzymes using the ID Business Solutions Ltd. (www.idbs.com) XLfit software suite.
# [3] = molecular target: T2, Arabidopsis thaliana wild type HPPD “SEQ ID No. 32”; assay: pI50 determination from dose-response plots of HPPD activity (standard spectrophotometric assay of WO 2009/144079); type: biochemical
# From the text: as §1
# [4] = molecular target: T4, Arabidopsis HPPD single point mutant SEQ ID No. 35 (Arabidopsis thaliana, UniProt P93836, E252S); assay: biochemical; conditions: for pI50: E252S mutant, 2 mM HPP, 3 minutes incubation
# T4 construct: made in house; host or cells: E. coli BL21 (DE3)
# T4 sequence (P93836 whole entry E252S): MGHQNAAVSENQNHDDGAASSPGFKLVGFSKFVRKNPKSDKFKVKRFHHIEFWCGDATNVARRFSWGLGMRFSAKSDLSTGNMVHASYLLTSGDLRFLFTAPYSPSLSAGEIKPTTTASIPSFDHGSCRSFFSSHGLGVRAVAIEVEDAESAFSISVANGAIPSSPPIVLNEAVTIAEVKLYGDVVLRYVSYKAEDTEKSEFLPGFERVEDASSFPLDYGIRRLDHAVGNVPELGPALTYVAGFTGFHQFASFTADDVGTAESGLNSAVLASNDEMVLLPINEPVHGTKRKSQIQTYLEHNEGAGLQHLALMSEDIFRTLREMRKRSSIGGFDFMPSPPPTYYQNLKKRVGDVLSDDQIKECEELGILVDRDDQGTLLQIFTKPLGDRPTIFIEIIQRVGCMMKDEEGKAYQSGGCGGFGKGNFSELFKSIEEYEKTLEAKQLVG
# From the text: as §1
# [5] = molecular target: T5, Arabidopsis HPPD single point mutant SEQ ID No. 44 (Arabidopsis thaliana, UniProt P93836, L368M); assay: biochemical; conditions: for pI50: L368M mutant (SEQ ID No. 44), 2 mM HPP, 3 minutes incubation
# T5 construct: made in house; host or cells: E. coli BL21 (DE3)
# T5 sequence (P93836 other isoform, or with tags, fused parts or gaps L368M): as the sequence (P93836 other isoform, or with tags, fused parts or gaps K421Q) above, with L373M, Q426K counted along it
# From the text: as §1
# [6] = molecular target: T6, Arabidopsis HPPD single point mutant SEQ ID No. 42 (Arabidopsis thaliana, UniProt P93836, P280A); assay: biochemical; conditions: for pI50: P280A mutant (SEQ ID No. 42), 2 mM HPP, 3 minutes incubation
# T6 construct: made in house; host or cells: E. coli BL21 (DE3)
# T6 sequence (P93836 other isoform, or with tags, fused parts or gaps P280A): as the sequence (P93836 other isoform, or with tags, fused parts or gaps K421Q) above, with P285A, Q426K counted along it
# From the text: as §1
# [7] = molecular target: T7, Arabidopsis HPPD single point mutant SEQ ID No. 40 (Arabidopsis thaliana, UniProt P93836, V269A); assay: biochemical; conditions: for pI50: V269A mutant (SEQ ID No. 40), 2 mM HPP, 3 minutes incubation
# T7 construct: made in house; host or cells: E. coli BL21 (DE3)
# T7 sequence (P93836 other isoform, or with tags, fused parts or gaps V269A): as the sequence (P93836 other isoform, or with tags, fused parts or gaps K421Q) above, with V274A, Q426K counted along it
# From the text: as §1
# [8] = molecular target: T8, Arabidopsis HPPD single point mutant SEQ ID No. 46 (Arabidopsis thaliana, UniProt P93836, K421I); assay: biochemical; conditions: for pI50: K421I mutant (SEQ ID No. 46), 2 mM HPP, 3 minutes incubation
# T8 construct: made in house; host or cells: E. coli BL21 (DE3)
# T8 sequence (P93836 other isoform, or with tags, fused parts or gaps K421I): as the sequence (P93836 other isoform, or with tags, fused parts or gaps K421Q) above, with Q426I counted along it
# From the text: as §1
# [9] = molecular target: T9, Arabidopsis HPPD single point mutant SEQ ID No. 50 (Arabidopsis thaliana, UniProt P93836, K421V); assay: biochemical; conditions: for pI50: K421V mutant (SEQ ID No. 50), 2 mM HPP, 3 minutes incubation
# T9 construct: made in house; host or cells: E. coli BL21 (DE3)
# T9 sequence (P93836 other isoform, or with tags, fused parts or gaps K421V): as the sequence (P93836 other isoform, or with tags, fused parts or gaps K421Q) above, with Q426V counted along it
# From the text: as §1
# HPPD activity = assay: Colorimetric screening test for active HPPD enzymes (production of brown color); type: cell-based, Escherichia coli; conditions: E. coli with pSE420-HPPDx, 5 mM L-Tyrosine, 16 hours at 37° C.
# Procedure: (§2) A YT-broth-type culture medium with 1% agarose, 5 mM L-Tyrosine and 42 mM Succinate, which contains the selection agent for the vector pSE420 (Invitrogen, Karlsruhe, Germany) is poured into deep well plates. E. coli culture in the exponentional growth phase which contains the vector pSE420-HPPDx (HPPDx means any gene coding for a putative HPPD enzyme/protein) is applied to each well.
# as §2, with “pSE420” for “pSE420 (Invitrogen, Karlsruhe, Germany)”, “(any” for “(HPPDx means any”
# It can be concluded that the two HPPD mutants are not able to convert HPP into homogentisate. […] One can conclude that the amino acid positions 267 and 282 (referring to position in SEQ ID No. 2) are essential for HPPD activity.
# [10] = substrate HPP varied 10-400 μM, HPPD SEQ ID No. 32, HPLC assay
# [11] = SEQ ID No. 32 (wild type), 2 mM HPP, 3 minutes incubation
molecule,measurement,setting,value
"CS(=O)(=O)c1ccc(C(=O)C2C(=O)CCCC2=O)c([N+](=O)[O-])c1 [Mesotrione, 2-[4-(methylsulfonyl)-2-nitrobenzoyl]-1,3-cyclohexanedione]",IC50,[1],< 2.51 µM
O=C(O)C(=O)Cc1ccc(O)cc1 [HPP],Km,[2]; [10],6.3 µM
same,Vmax,[2]; [10],1.2 µM
Cc1ccc(S(=O)(=O)Oc2c(C(=O)c3ccc(Cl)cc3Cl)c(C)nn2C)cc1 [Pyrazolat],pI50,[3]; [11],5.4
same,pI50,[1],5.0
same,pI50,[4],4.7
same,pI50,[5],4.9
same,pI50,[6],4.7
same,pI50,[7],4.4
same,pI50,[8],4.5
same,pI50,[9],4.5
"CS(=O)(=O)c1ccc(C(=O)C2C(=O)CCCC2=O)c(Cl)c1COCC(F)(F)F [Tembotrione, 2-[2-chloro-4-(methylsulfonyl)-3-[(2,2,2,-tri-fluoroethoxy)methyl]benzoyl]-1,3-cyclo-hexanedione]",kinetic parameter / sensitivity of Arabidopsis thaliana HPPD in presence of inhibitor,[2],comparable range
same,IC50,[1],< 2.51 µM
same,IC50,[5],< 2.51 µM
same,IC50,[6],< 2.51 µM
same,IC50,[7],< 2.51 µM
same,IC50,[9],< 2.51 µM
Cc1ccc(C(=O)COc2c(C(=O)c3ccc(Cl)c(C)c3Cl)c(C)nn2C)cc1 [Benzofenap],IC50,[1],< 2.51 µM
same,IC50,[4],6.31 µM
same,IC50,[5],< 2.51 µM
same,IC50,[6],6.31 µM
same,IC50,[7],6.31 µM
same,IC50,[8],7.94 µM
same,IC50,[9],6.31 µM
"CS(=O)(=O)c1ccc(C(=O)C2C(=O)CCCC2=O)c(Cl)c1 [Sulcotrione, 2-[2-chloro-4-(methylsulfonyl)benzoyl]-1,3-cyclohexanedione]",IC50,[1],< 2.51 µM
same,IC50,[4],7.94 µM
same,IC50,[5],6.31 µM
same,IC50,[6],10 µM
same,IC50,[7],10 µM
same,IC50,[8],10 µM
same,IC50,[9],7.94 µM
Cc1nn(C)c(O)c1C(=O)c1ccc(C(F)(F)F)cc1S(C)(=O)=O [Pyrasulfotole],pI50,"[3]; 2 mM fixed HPP concentration, 3 minutes fixed incubation time, inhibitor 2.5 × 10^−6 to 2.5 × 10^−4 M",5.4
same,pI50,[3]; [11],5.4
same,pI50,[1],4.8
same,pI50,[4],4.3
same,pI50,[5],5.0
same,pI50,[6],4.4
same,pI50,[7],4.4
same,pI50,[8],4.3
same,pI50,[9],4.4
"COCCOCc1nc(C(F)(F)F)ccc1C(=O)C1=C(O)C2CCC(C2)C1=O (stereo not drawn) [Bicyclopyrone, 4-hydroxy-3-[[2-[(2-methoxyethoxy)methyl]-6-(trifluoromethyl)-3-pyridinyl]carbonyl]bicyclo[3.2.1]oct-3-en-2-one]",IC50,[1],20 µM
same,IC50,[4],50.1 µM
same,IC50,[5],31.6 µM
same,IC50,[6],50.1 µM
same,IC50,[7],50.1 µM
same,IC50,[8],63.1 µM
same,IC50,[9],63.1 µM
"CS(=O)(=O)c1cc(C(F)(F)F)ccc1C(=O)C(C#N)C(=O)C1CC1 (stereo not drawn) [Diketonitrile, 2-cyano-3-cyclopropyl-1-(2-methylsulphonyl-4-trifluoromethylphenyl)-propane-1,3-dione]",kinetic parameter / sensitivity of Arabidopsis thaliana HPPD in presence of inhibitor,[2],sensitive in the similar range as the carrot HPPD
B1,HPPD activity (production of brown color),HPPD activity,inactive
B2,HPPD activity (production of brown color),HPPD activity,inactive
B3,HPPD activity (production of brown color),HPPD activity,strong brown color

# Source: patent US20250223607A1, “HPPD Variants and Methods of Use” (BASF Agricultural Solutions Seed US LLC, priority 2013, published 2025)
